PubChem BioAssay AID328 (DTP/NCI, 2004)
“And” between values parts separate entries of the source, which are not always exact repeats. Equal values may be shown once. Toxic doses and inconclusive results are not listed. The calls were made as follows: active = survival T/C of 150% or more; inactive = T/C below 125% in these data.

System: BDF1 mice, P388 leukemia ip, median survival T/C
Assay: NCI In Vivo Anticancer Drug Screen. Data for tumor model P388 Leukemia (intraperitoneal) in B6D2F1 (BDF1) mice
Conditions: endpoint: median survival time, higher = longer survival
Summary of the method: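 Compound-treated tumour-bearing mice were compared with vehicle-treated controls. Survival was recorded, and the value is the treated-group measurement divided by the control-group measurement (T/C).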

[1] = dose: 100.0 mg/kg/injection, schedule: Q04DX003 (ip), vehicle: Klucel (hydroxypropylcellulose) (HPC)
[2] = dose: 200.0 mg/kg/injection, schedule: Q04DX003 (ip), vehicle: Klucel (hydroxypropylcellulose) (HPC)
[3] = dose: 100.0 mg/kg/injection, schedule: Q01DX001 (ip), vehicle: saline
[4] = dose: 100.0 mg/kg/injection, schedule: Q01DX009 (ip), vehicle: Klucel (hydroxypropylcellulose) (HPC)
[5] = dose: 200.0 mg/kg/injection, schedule: Q01DX009 (ip), vehicle: Klucel (hydroxypropylcellulose) (HPC)
[6] = dose: 400.0 mg/kg/injection, schedule: Q01DX009 (ip), vehicle: Klucel (hydroxypropylcellulose) (HPC)
[7] = dose: 100.0 mg/kg/injection, schedule: Q01DX009 (ip), vehicle: saline with Tween-80
[8] = dose: 200.0 mg/kg/injection, schedule: Q01DX009 (ip), vehicle: saline with Tween-80
[9] = dose: 25.0 mg/kg/injection, schedule: Q01DX009 (ip), vehicle: saline
[10] = dose: 50.0 mg/kg/injection, schedule: Q01DX009 (ip), vehicle: saline
[11] = dose: 100.0 mg/kg/injection, schedule: Q01DX009 (ip), vehicle: saline
[12] = dose: 200.0 mg/kg/injection, schedule: Q01DX009 (ip), vehicle: saline
[13] = dose: 100.0 mg/kg/injection, schedule: Q04DX003 (ip), vehicle: saline
[14] = dose: 200.0 mg/kg/injection, schedule: Q04DX003 (ip), vehicle: saline
[15] = dose: 400.0 mg/kg/injection, schedule: Q04DX003 (ip), vehicle: saline
[16] = dose: 100.0 mg/kg/injection, schedule: Q01DX001 (ip), vehicle: saline with Tween-80
[17] = dose: 200.0 mg/kg/injection, schedule: Q01DX001 (ip), vehicle: saline with Tween-80
[18] = dose: 50.0 mg/kg/injection, schedule: Q01DX009 (ip), vehicle: saline with Tween-80

Measured: T/C

c1ccc(Nc2ccc(Nc3ccccc3)cc2)cc1
inactive: dose: 50.0 mg/kg/injection, schedule: Q04DX003 (ip), vehicle: Klucel (hydroxypropylcellulose) (HPC) 118 % of control | dose: 100.0 mg/kg/injection, schedule: Q01DX001 (ip), vehicle: Klucel (hydroxypropylcellulose) (HPC) 90 % of control | [1] 104 % of control | dose: 200.0 mg/kg/injection, schedule: Q01DX001 (ip), vehicle: Klucel (hydroxypropylcellulose) (HPC) 100 % of control | [2] 104 % of control | dose: 400.0 mg/kg/injection, schedule: Q01DX001 (ip), vehicle: Klucel (hydroxypropylcellulose) (HPC) 90 % of control

CCCCC(C(=O)OCC)C(CCC1CCCCC1)(C(=O)OCC)C(=O)OCC (stereo not drawn)
inactive: [1] 91 % of control | [2] 87 % of control | dose: 400.0 mg/kg/injection, schedule: Q04DX003 (ip), vehicle: Klucel (hydroxypropylcellulose) (HPC) 100 % of control

CC[N+](C)(C)CC
inactive: dose: 25.0 mg/kg/injection, schedule: Q01DX001 (ip), vehicle: saline 105 % of control | dose: 50.0 mg/kg/injection, schedule: Q01DX001 (ip), vehicle: saline 103 % of control | [3] 96 % of control and 117 % of control

C=C1C(=O)OC2CC(C)CCC/C(CO)=C/C(OC(=O)/C(=C/CO)CO)C12 (stereo not drawn)
inactive: dose: 3.5 mg/kg/injection, schedule: Q01DX009 (ip), vehicle: saline 104 % of control | dose: 7.0 mg/kg/injection, schedule: Q01DX009 (ip), vehicle: saline 108 % of control

N=C(N)c1nn(C2OC(CO)C(O)C2O)c2ncnc(N)c12 (stereo not drawn)
inactive: dose: 10.0 mg/kg/injection, schedule: Q01DX009 (ip), vehicle: saline 114 % of control and 117 % of control | dose: 10.0 mg/kg/injection, schedule: Q04DX003 (ip), vehicle: saline 109 % of control and 118 % of control | dose: 20.0 mg/kg/injection, schedule: Q01DX009 (ip), vehicle: saline 117 % of control and 124 % of control | dose: 20.0 mg/kg/injection, schedule: Q04DX003 (ip), vehicle: saline 122 % of control | dose: 40.0 mg/kg/injection, schedule: Q04DX003 (ip), vehicle: saline 104 % of control | dose: 80.0 mg/kg/injection, schedule: Q04DX003 (ip), vehicle: saline 95 % of control

CCCCCCC(=O)CCCC(C)CCCC(C)C (stereo not drawn)
inactive: [4] 100 % of control | [5] 109 % of control | [6] 118 % of control

CCN=C(N)N=C(N)N
inactive: [3] 102 % of control

O=C(CCC[N+](=O)[O-])c1ccccc1
inactive: dose: 50.0 mg/kg/injection, schedule: Q01DX005 (ip), vehicle: saline with Tween-80 113 % of control | dose: 100.0 mg/kg/injection, schedule: Q01DX005 (ip), vehicle: saline with Tween-80 113 % of control | dose: 200.0 mg/kg/injection, schedule: Q01DX005 (ip), vehicle: saline with Tween-80 99 % of control

CCCC(NC(=O)OCc1ccccc1)C(=O)O (stereo not drawn)
inactive: [7] 105 % of control | [8] 105 % of control

O=C1c2cc(O)c(O)cc2O[C@H](c2ccc(O)c(O)c2)[C@H]1O
inactive: dose: 7.5 mg/kg/injection, schedule: Q01DX010 (ip), vehicle: saline 100 % of control | dose: 15.0 mg/kg/injection, schedule: Q01DX009 (ip), vehicle: saline 113 % of control and 118 % of control | dose: 15.0 mg/kg/injection, schedule: Q01DX010 (ip), vehicle: saline 109 % of control | dose: 30.0 mg/kg/injection, schedule: Q01DX009 (ip), vehicle: saline 100 % of control | dose: 30.0 mg/kg/injection, schedule: Q01DX010 (ip), vehicle: saline 109 % of control | dose: 60.0 mg/kg/injection, schedule: Q01DX009 (ip), vehicle: saline 104 % of control and 122 % of control | dose: 125.0 mg/kg/injection, schedule: Q01DX009 (ip), vehicle: saline 104 % of control | dose: 350.0 mg/kg/injection, schedule: Q01DX009 (ip), vehicle: saline 117 % of control

CC12CCC(CC1)C(C)(C)O2
inactive: [9] 106 % of control | [10] 117 % of control | [11] 106 % of control | [12] 107 % of control

O=Cc1c[nH]c2nccnc12
inactive: [9] 98 % of control | [10] 101 % of control | [11] 99 % of control and 115 % of control | [13] 100 % of control | [12] 107 % of control and 108 % of control | [14] 101 % of control | [15] 103 % of control

O=S(=O)(CBr)N1CCOCC1
inactive: dose: 50.0 mg/kg/injection, schedule: Q01DX001 (ip), vehicle: saline with Tween-80 95 % of control | [16] 100 % of control | [17] 108 % of control

C=CCCCCCCCCCCCCCC
inactive: dose: 145.0 mg/kg/injection, schedule: Q01DX010 (ip), vehicle: saline 104 % of control | dose: 220.0 mg/kg/injection, schedule: Q01DX010 (ip), vehicle: saline 113 % of control | dose: 330.0 mg/kg/injection, schedule: Q01DX010 (ip), vehicle: saline 104 % of control | dose: 500.0 mg/kg/injection, schedule: Q01DX010 (ip), vehicle: saline 118 % of control

O=CNc1ccc(/C=C\c2ccnc3ccccc23)cc1
inactive: dose: 3.13 mg/kg/injection, schedule: Q01DX009 (ip), vehicle: saline with Tween-80 111 % of control | dose: 6.25 mg/kg/injection, schedule: Q01DX009 (ip), vehicle: saline with Tween-80 106 % of control | dose: 12.5 mg/kg/injection, schedule: Q01DX009 (ip), vehicle: saline with Tween-80 103 % of control | [18] 94 % of control | [7] 86 % of control | [8] 91 % of control

C=C(C(N)=O)c1cc(Cl)ccc1Cl
inactive: dose: 100.0 mg/kg/injection, schedule: Q01DX009 (ip), vehicle: water 110 % of control | dose: 100.0 mg/kg/injection, schedule: Q04DX003 (ip), vehicle: saline with Tween-80 100 % of control | dose: 200.0 mg/kg/injection, schedule: Q01DX009 (ip), vehicle: water 100 % of control | dose: 200.0 mg/kg/injection, schedule: Q04DX003 (ip), vehicle: saline with Tween-80 95 % of control | dose: 400.0 mg/kg/injection, schedule: Q01DX009 (ip), vehicle: water 100 % of control | dose: 400.0 mg/kg/injection, schedule: Q04DX003 (ip), vehicle: saline with Tween-80 95 % of control

O=C(O)Cc1ccc(C2CCCCC2)cc1
inactive: [4] 91 % of control and 95 % of control | [5] 90 % of control | [6] 90 % of control and 100 % of control

CC1CCC(NC2=NCCO2)C1 (stereo not drawn)
inactive: [16] 87 % of control | [17] 91 % of control | dose: 400.0 mg/kg/injection, schedule: Q01DX001 (ip), vehicle: saline with Tween-80 95 % of control

CCC(C)OP1(=S)OCC(C)O1 (stereo not drawn)
inactive: dose: 100.0 mg/kg/injection, schedule: Q04DX002 (ip), vehicle: saline with Tween-80 115 % of control | dose: 200.0 mg/kg/injection, schedule: Q04DX002 (ip), vehicle: saline with Tween-80 106 % of control | dose: 400.0 mg/kg/injection, schedule: Q04DX002 (ip), vehicle: saline with Tween-80 118 % of control

CCOC(=O)C(Cc1ccccc1Cl)(Cc1ccccc1Cl)c1ccccc1
inactive: [7] 106 % of control | [8] 100 % of control

CCC1(C(C)Br)OC2=C(CC(C#N)(C#N)C(C#N)(C#N)C2)O1 (stereo not drawn)
inactive: dose: 12.0 mg/kg/injection, schedule: Q01DX001 (ip), vehicle: Klucel (hydroxypropylcellulose) (HPC) 116 % of control | dose: 25.0 mg/kg/injection, schedule: Q01DX001 (ip), vehicle: Klucel (hydroxypropylcellulose) (HPC) 104 % of control | dose: 50.0 mg/kg/injection, schedule: Q01DX001 (ip), vehicle: Klucel (hydroxypropylcellulose) (HPC) 100 % of control

C/C(=C\c1ccc(N(C)C)cc1C)[N+](=O)[O-]
inactive: [18] 116 % of control and 118 % of control | [7] 114 % of control and 124 % of control | [8] 122 % of control

CN(CCO)/N=N/c1nc[nH]c1C(N)=O
inactive: dose: 1.56 mg/kg/injection, schedule: Q01DX009 (ip), vehicle: saline 95 % of control | dose: 3.13 mg/kg/injection, schedule: Q01DX009 (ip), vehicle: saline 100 % of control | dose: 6.25 mg/kg/injection, schedule: Q01DX009 (ip), vehicle: saline 100 % of control | [9] 92 % of control | [13] 105 % of control | [12] 110 % of control | [14] 100 % of control | dose: 400.0 mg/kg/injection, schedule: Q01DX009 (ip), vehicle: saline 100 % of control | [15] 105 % of control
